Patent publication US9315451B2, “Tetracycline compounds” (priority 2009, dated 2016)
Where two headings read alike, the source gives them in different places.

Tested on: S. aureus Smith (ATCC 13709)
Assay: Mouse systemic infection (septicemia) model, S. aureus Smith
Format: in vivo
Conditions: Staphylococcus aureus, CD-1 female mice, survival at 48 hours; for responders at 3 mg/kg: IV 3 mg/kg one hour post infection, read-out: SA Smith septicemia survival IV (3 mg/kg); for responders at 30 mg/kg: PO 30 mg/kg one hour post infection, read-out: SA Smith septicemia survival PO (30 mg/kg)
Method: Mouse Systemic Infection Protocol-S. aureus Smith Septicemia
Compounds were screened for antibacterial activity in vivo in a mouse systemic infection (septicemia) model. In the model, CD-1 female mice (18-22 grams) were injected IP with a S. aureus Smith (ATCC 13709) inoculum that results in 0% survival within 24 to 48 hours. The bacterial dose required to achieve this effect was previously established through virulence studies. At one hour post infection, mice received either […] IV or […] PO. Typically, six mice were treated per dose group. Animal survival was assessed and recorded for 48 hours. Percent survival at 48 hours was recorded and PD50 (mg/kg) was determined for each compound tested.

SMILES	responders at 3 mg/kg (ATCC13709, iv, 48 h) [%]	responders at 30 mg/kg (ATCC13709, po, 48 h) [%]	responders at 3 mg/kg (ATCC13709) [%]	responders at 30 mg/kg (ATCC13709) [%]
CC(C)[C@@H](C)NCc1cc(O)c2c(c1C(F)(F)F)C[C@H]1C[C@H]3[C@H](N(C)C)C(O)=C(C(N)=O)C(=O)[C@@]3(O)C(O)=C1C2=O [Compound S25-11-171]	83	17		
CN(C)[C@@H]1C(O)=C(C(N)=O)C(=O)[C@@]2(O)C(O)=C3C(=O)c4c(O)cc(CN5CCOCC5)c(Cl)c4C[C@H]3C[C@@H]12 [Compound S15-13-17]	100	67		
CN(C)[C@@H]1C(O)=C(C(N)=O)C(=O)[C@@]2(O)C(O)=C3C(=O)c4c(O)cc(CN5C6CCC5CC6)c(Cl)c4C[C@H]3C[C@@H]12 [Compound S15-13-222]			100	100
CC(C)[C@@H](C)N(C)Cc1cc(O)c2c(c1F)C[C@H]1C[C@H]3[C@H](N(C)C)C(O)=C(C(N)=O)C(=O)[C@@]3(O)C(O)=C1C2=O [Compound S2-4-57]	50	33		
CN(C)[C@@H]1C(O)=C(C(N)=O)C(=O)[C@@]2(O)C(O)=C3C(=O)c4c(O)cc(CN5CCC6(CC5)CC6)c(F)c4C[C@H]3C[C@@H]12 [Compound S1-14-128]	100	100		
CN(C)[C@@H]1C(O)=C(C(N)=O)C(=O)[C@@]2(O)C(O)=C3C(=O)c4c(O)cc(CN5CCC(C)(C)CC5)c(Cl)c4C[C@H]3C[C@@H]12 [Compound S15-13-16]	33	17		
CN(C)[C@@H]1C(O)=C(C(N)=O)C(=O)[C@@]2(O)C(O)=C3C(=O)c4c(O)cc(CN5CC6CCCC6C5)c(Cl)c4C[C@H]3C[C@@H]12 (some centres unmarked) [Compound S15-13-184]	17	0		
CN(C)[C@@H]1C(O)=C(C(N)=O)C(=O)[C@@]2(O)C(O)=C3C(=O)c4c(O)cc(CNC56CC7CC(CC(C7)C5)C6)c(F)c4C[C@H]3C[C@@H]12 [Compound S1-14-4]	100	0		
C[C@@H]1CCC[C@H](C)N1Cc1cc(O)c2c(c1Cl)C[C@H]1C[C@H]3[C@H](N(C)C)C(O)=C(C(N)=O)C(=O)[C@@]3(O)C(O)=C1C2=O [Compound S15-13-221]	33	50		
CN(C)[C@@H]1C(O)=C(C(N)=O)C(=O)[C@@]2(O)C(O)=C3C(=O)c4c(O)cc(NC(=O)CN5CCCC5)cc4C[C@H]3C[C@@H]12 [Compound S21-12-1]	100	33		
C[C@H]1CCC[C@H](C)N1Cc1cc(O)c2c(c1Cl)C[C@H]1C[C@H]3[C@H](N(C)C)C(O)=C(C(N)=O)C(=O)[C@@]3(O)C(O)=C1C2=O [Compound S15-13-225]	100	100		
CN(C)[C@@H]1C(O)=C(C(N)=O)C(=O)[C@@]2(O)C(O)=C3C(=O)c4c(O)cc(CN5CCCCC56CC6)c(F)c4C[C@H]3C[C@@H]12 [Compound S2-4-11]	0	0		
CN(Cc1cc(O)c2c(c1F)C[C@H]1C[C@H]3[C@H](N(C)C)C(O)=C(C(N)=O)C(=O)[C@@]3(O)C(O)=C1C2=O)CC(C)(C)C [Compound S2-4-21]	16	0		
CN(C)[C@@H]1C(O)=C(C(N)=O)C(=O)[C@@]2(O)C(O)=C3C(=O)c4c(O)cc(CN5CCC(C6CC6)CC5)c(F)c4C[C@H]3C[C@@H]12 [Compound S1-14-134]	50	17		
CC(C)N(Cc1cc(O)c2c(c1Cl)C[C@H]1C[C@H]3[C@H](N(C)C)C(O)=C(C(N)=O)C(=O)[C@@]3(O)C(O)=C1C2=O)CC1CC1 [Compound S15-13-215]	50	50		
CCC(C)(C)N(C)Cc1cc(O)c2c(c1OC)C[C@H]1C[C@H]3[C@H](N(C)C)C(O)=C(C(N)=O)C(=O)[C@@]3(O)C(O)=C1C2=O [Compound S24-9-19]	100	100		
